From patent publication US9556159B2, “Renin inhibitor” (MITSUBISHI TANABE PHARMA CORPORATION, priority 2012, dated 2017)

Target: T1, Recombinant human renin (Homo sapiens, UniProt P00797)
T1 sequence (P00797 67-406): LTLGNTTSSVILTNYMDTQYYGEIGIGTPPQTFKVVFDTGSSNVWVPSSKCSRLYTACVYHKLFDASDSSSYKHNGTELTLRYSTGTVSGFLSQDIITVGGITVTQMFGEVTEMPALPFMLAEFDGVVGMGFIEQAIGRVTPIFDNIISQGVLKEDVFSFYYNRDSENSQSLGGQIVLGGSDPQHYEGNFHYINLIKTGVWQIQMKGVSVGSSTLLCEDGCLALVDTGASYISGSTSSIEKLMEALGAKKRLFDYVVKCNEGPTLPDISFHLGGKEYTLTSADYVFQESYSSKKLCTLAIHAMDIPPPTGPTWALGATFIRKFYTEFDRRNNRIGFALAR
Test: Inhibitory activity against human renin (fluorogenic peptide substrate)
Type: biochemical
Settings: 50% inhibitory concentration (IC50) against human renin, 37° C. for 1 hour

For COC(=O)NCCCc1cc([C@@H](C)N(C(=O)[C@H]2CN[C@@H](C)CO2)C2CC2)cc(C2CC2)n1 [Example 352], the IC50 was 7.6 nM.

COC(=O)NCCCn1cc([C@@H](C)N(C(=O)[C@H]2CN[C@@H](C)CO2)C2CC2)nc1-c1ccccc1 [Example 353] gave an IC50 of 0.4 nM.

COC(=O)NCCCc1cc([C@@H](C)N(C(=O)[C@H]2CNC[C@@H](C)O2)C2CC2)nn1-c1ccc(C(F)(F)F)cc1 [Example 354] showed an IC50 of 1.4 nM.

In the case of COC(=O)NCCCc1cc([C@@H](C)N(C(=O)[C@H]2CN[C@@H](C)CO2)C2CC2)nn1-c1ccccc1 [Example 355], the IC50 is reported as 0.8 nM.

COC(=O)NC/C=C/c1cc([C@@H](C)N(C(=O)[C@H]2CNC[C@@H](C)O2)C2CC2)nn1-c1ccc(C(F)(F)F)cc1 [Example 356] gave an IC50 of 5.1 nM.

COC(=O)NC/C=C/c1cc([C@@H](C)N(C(=O)[C@H]2CNCCO2)C2CC2)nn1-c1ccccc1 [Example 357] gave an IC50 of 3.5 nM.

Compound COC(=O)NC/C=C/c1cc([C@@H](C)N(C(=O)[C@H]2CN[C@@H](C)CO2)C2CC2)nn1-c1ccccc1 [Example 358] has an IC50 of 5.7 nM.

Compound COC(=O)NCCCc1cc([C@@H](C)N(C(=O)[C@H]2CNC[C@@H](C)O2)C2CC2)nn1-c1cccc(F)c1 [Example 359] has an IC50 of 0.3 nM.

For COC(=O)NCCCc1nc(C(C)N(C(=O)[C@H]2CNCCO2)C2CC2)nn1-c1cccc(Cl)c1 (stereo partly drawn) [Example 360], the IC50 was 7.6 nM.

COCCCOc1cc([C@@H](C)N(C(=O)[C@H]2CNCCO2)C2CC2)nn1-c1ccccc1 [Example 361] showed an IC50 of 0.8 nM.

COC(=O)NCCCc1cc([C@@H](C)N(C(=O)[C@H]2CNCCO2)C2CC2)cc(N(C)S(C)(=O)=O)n1 [Example 362] gave an IC50 of 5 nM.

For COC(=O)NCCCc1nc([C@@H](C)N(C(=O)[C@H]2CNCCO2)C2CC2)nn1-c1cccc(Cl)c1 [Example 365], the IC50 was 3.5 nM.

For COCCOc1cc([C@@H](C)N(C(=O)[C@H]2CNC[C@@H](C)O2)C2CC2)cc(CCCNC(=O)OC)n1 [Example 366], the IC50 was 0.7 nM.

COC(=O)NCCCc1cc([C@@H](C)N(C(=O)[C@H]2CNC[C@@H](C(F)(F)F)O2)C2CC2)nn1-c1ccccc1 [Example 367] was tested, and the IC50 was 1.7 nM.

COC(=O)NCCCc1sc([C@@H](C)N(C(=O)[C@H]2CN[C@@H](C)CO2)C2CC2)nc1-c1cccc(Cl)c1 [Example 368] showed an IC50 of 8.4 nM.

COC(=O)NCCCc1cc([C@@H](C)N(C(=O)[C@H]2CNC[C@@H](CF)O2)C2CC2)nn1-c1ccccc1 [Example 369] showed an IC50 of 1.5 nM.

COC(=O)NCCCc1cc([C@@H](C)N(C(=O)[C@H]2CN[C@@H](C)CO2)C2CC2)nn1-c1cccc(F)c1 [Example 370] showed an IC50 of 1.7 nM.

COC(=O)NCCCc1cc([C@@H](C)N(C(=O)[C@H]2CN[C@@H](C)CO2)C2CC2)nn1-c1ccc(F)cc1 [Example 371] was tested, and the IC50 was 1 nM.

Compound COC(=O)NCCCc1cc([C@@H](C)N(C(=O)[C@H]2CN[C@@H](CF)CO2)C2CC2)nn1-c1ccc(F)cc1 [Example 372] has an IC50 of 6 nM.

COCCCc1cc([C@@H](C)N(C(=O)[C@H]2CNC[C@@H](C)O2)C2CC2)cc(CCCNC(=O)OC)n1 [Example 373] was tested, and the IC50 was 0.8 nM.

In the case of COC(=O)NCCCc1cc([C@@H](C)N(C(=O)[C@H]2CNCCO2)C2CC2)nc(C2CC2)n1 [Example 374], the IC50 is reported as 5.4 nM.

Compound COC(=O)NCCCc1nc(OC)cc([C@@H](C)N(C(=O)[C@H]2CNC[C@@H](C)O2)C2CC2)n1 [Example 375] has an IC50 of 1.3 nM.

In the case of COC(=O)NCCCc1nc([C@@H](C)N(C(=O)[C@H]2CNC[C@@H](C)O2)C2CC2)sc1-c1cccc(Cl)c1 [Example 376], the IC50 is reported as 4.7 nM.

In the case of COC(=O)NCCCc1nc([C@@H](C)N(C(=O)[C@H]2CNCCO2)C2CC2)sc1-c1cccc(Cl)c1 [Example 377], the IC50 is reported as 2.4 nM.

Work on COC[C@@H]1CNC[C@H](C(=O)N(C2CC2)[C@H](C)c2nc(CCCNC(=O)OC)c(-c3cccc(Cl)c3)s2)O1 [Example 378] yielded an IC50 of 3.5 nM.

In the case of CCc1cc([C@@H](C)N(C(=O)[C@H]2CNCCO2)C2CC2)nc2c1cnn2CCCOC [Example 379], the IC50 is reported as 8.9 nM.

CCc1cc([C@@H](C)N(C(=O)[C@H]2CNC[C@@H](C)O2)C2CC2)nc2c1cnn2CCCOC [Example 380] gave an IC50 of 2.6 nM.

COC[C@@H]1CNC[C@H](C(=O)N(C2CC2)[C@H](C)c2nc(CCCNC(=O)OC)n(-c3cccc(Cl)c3)n2)O1 [Example 381] showed an IC50 of 1.7 nM.

COCCCc1cc([C@@H](C)N(C(=O)[C@H]2CNC[C@@H](COC)O2)C2CC2)cc(CCCNC(=O)OC)n1 [Example 382] showed an IC50 of 3.6 nM.

COCCOc1cc([C@@H](C)N(C(=O)[C@H]2CNC[C@@H](COC)O2)C2CC2)cc(CCCNC(=O)OC)n1 [Example 383] showed an IC50 of 1.3 nM.

Work on COCCOc1cc([C@H](C)N(C(=O)[C@H]2CNC[C@@H](COC)O2)C2CC2)cc(CCCNC(=O)OC)n1 [Example 384] yielded an IC50 of 3.2 nM.

Work on COCCCn1ncc2c(C)cc([C@@H](C)N(C(=O)[C@H]3CNC[C@@H](COC)O3)C3CC3)nc21 [Example 385] yielded an IC50 of 4.3 nM.

COC[C@@H]1CNC[C@H](C(=O)N(C2CC2)[C@H](C)c2cc(OC)nc(CCCNC(=O)OC)n2)O1 [Example 386] was tested, and the IC50 was 3.2 nM.

COC(=O)NCCCn1nc([C@@H](C)N(C(=O)[C@H]2CNCCO2)C2CC2)cc1C(C)(C)c1ccccc1 [Example 387] showed an IC50 of 4.4 nM.

In the case of CCc1nc([C@@H](C)N(C(=O)[C@H]2CNCCO2)C2CC2)cc2c1ncn2CCCOC [Example 388], the IC50 is reported as 1.8 nM.

In the case of CCc1nc([C@@H](C)N(C(=O)[C@H]2CN[C@@H](C)CO2)C2CC2)cc2c1ncn2CCCOC [Example 389], the IC50 is reported as 6.1 nM.

COC(=O)NCCCn1nc([C@@H](C)N(C(=O)[C@H]2CNC[C@@H](C)O2)C2CC2)cc1C(C)(C)c1ccccc1 [Example 390] was tested, and the IC50 was 3.5 nM.

CCOc1ncc([C@@H](C)N(C(=O)[C@H]2CNCCO2)C2CC2)nc1CCCNC(=O)OC [Example 391] gave an IC50 of 2 nM.

CCc1nc([C@@H](C)N(C(=O)[C@H]2CNC[C@@H](C)O2)C2CC2)cc2c1ncn2CCCOC [Example 392] was tested, and the IC50 was 0.7 nM.

With CCc1nc([C@@H](C)N(C(=O)[C@H]2CN[C@@H](COC)CO2)C2CC2)cc2c1ncn2CCCOC [Example 393] the IC50 was 3.7 nM.

CCc1nc([C@@H](C)N(C(=O)[C@H]2CNC[C@@H](COC)O2)C2CC2)cc2c1ncn2CCCOC [Example 394] showed an IC50 of 0.6 nM.

CCOc1ncc(C(C)N(C(=O)[C@H]2CNC[C@@H](C)O2)C2CC2)nc1CCCNC(=O)OC (stereo partly drawn) [Example 395] was tested, and the IC50 was 3.5 nM.

COC(=O)NCCCc1cc(C(C)N(C(=O)[C@H]2CNCCO2)C2CC2)sc1C1CC1 (stereo partly drawn) [Example 396] was tested, and the IC50 was 4.8 nM.

CCc1nc([C@H](C)N(C(=O)[C@H]2CN[C@@H](C)CO2)C2CC2)cc2c1ccn2CCCOC [Example 397] was tested, and the IC50 was 1.3 nM.

CCOc1ncc(C(C)N(C(=O)[C@H]2CNC[C@@H](COC)O2)C2CC2)nc1CCCNC(=O)OC (stereo partly drawn) [Example 398] was tested, and the IC50 was 5.1 nM.

CCc1cc(CCCNC(=O)OC)nc([C@@H](C)N(C(=O)[C@H]2CNCCO2)C2CC2)n1 [Example 399] was tested, and the IC50 was 4 nM.

With COC(=O)NCCCc1nc([C@@H](C)N(C(=O)[C@H]2CNCCO2)C2CC2)sc1-c1cccc(F)c1 [Example 400] the IC50 was 2.3 nM.

C=C(c1sc([C@@H](C)N(C(=O)[C@H]2CNCCO2)C2CC2)cc1CCCNC(=O)OC)C(F)(F)F [Example 401] was tested, and the IC50 was 2.7 nM.

In the case of COC(=O)NCCCc1nc([C@H](C)N(C(=O)[C@H]2CNCCO2)C2CC2)sc1-c1ccc(F)cc1 [Example 402], the IC50 is reported as 2.3 nM.

COC(=O)NCCCc1nc(C(C)N(C(=O)[C@H]2CNCCO2)C2CC2)sc1-c1cccnc1 (stereo partly drawn) [Example 403] was tested, and the IC50 was 3.1 nM.

COC(=O)NCCCn1cc([C@@H](C)N(C(=O)[C@H]2CNC[C@@H](CF)O2)C2CC2)nc1C1CCOCC1 [Example 404] showed an IC50 of 0.7 nM.

COC(=O)NCCCc1cc(C(C)N(C(=O)[C@H]2CNCCO2)C2CC2)sc1C(C)C(F)(F)F (stereo partly drawn) [Example 405] was tested, and the IC50 was 3.9 nM.

COC(=O)NCCCc1sc(C(C)N(C(=O)[C@H]2CNCCO2)C2CC2)cc1-c1ccccc1F (stereo partly drawn) [Example 406] was tested, and the IC50 was 3.4 nM.

Compound COC(=O)NCCCc1nc([C@@H](C)N(C(=O)[C@H]2CNCCO2)C2CC2)sc1-c1ccnc(C)c1 [Example 407] has an IC50 of 1.7 nM.

In the case of COC(=O)NCCCc1nc([C@@H](C)N(C(=O)[C@H]2CNCCO2)C2CC2)sc1-c1ccc(C)nc1 [Example 408], the IC50 is reported as 1.1 nM.

COC(=O)NCCCc1cc([C@@H](C)N(C(=O)[C@H]2CNCCO2)C2CC2)sc1-c1cnc(N)nc1 [Example 409] showed an IC50 of 1 nM.

Work on COC(=O)NCCCc1cc(C(C)N(C(=O)[C@H]2CNCCO2)C2CC2)sc1-c1cnc2[nH]ccc2c1 (stereo partly drawn) [Example 410] yielded an IC50 of 6.7 nM.

In the case of C=C(C)c1sc(C(C)N(C(=O)[C@H]2CNCCO2)C2CC2)cc1CCCNC(=O)OC (stereo partly drawn) [Example 411], the IC50 is reported as 2.2 nM.

COC(=O)NCCCc1cc([C@@H](C)N(C(=O)[C@H]2CNCCO2)C2CC2)sc1-c1cnc(N)nc1 [Example 412] gave an IC50 of 0.6 nM.

Compound COC(=O)NCCCc1nc([C@@H](C)N(C(=O)[C@H]2CNCCO2)C2CC2)sc1-c1cnn(C)c1 [Example 413] has an IC50 of 2 nM.

COC(=O)NCCCc1nc([C@@H](C)N(C(=O)[C@H]2CNCCO2)C2CC2)sc1-c1ccccc1C(=O)OC [Example 414] showed an IC50 of 2.8 nM.

COC(=O)NCCCc1nc([C@@H](C)N(C(=O)[C@H]2CNCCO2)C2CC2)sc1-c1ccnn1C [Example 415] showed an IC50 of 0.6 nM.

Work on COC(=O)NCCCc1nc([C@@H](C)N(C(=O)[C@H]2CNCCO2)C2CC2)sc1-c1cncnc1 [Example 416] yielded an IC50 of 3 nM.

For COC(=O)NCCCc1nc([C@@H](C)N(C(=O)[C@H]2CNCCO2)C2CC2)sc1-c1ccccc1F [Example 417], the IC50 was 3.4 nM.

COC(=O)NCCCc1cc(C(C)N(C(=O)[C@H]2CNCCO2)C2CC2)sc1C(C)C (stereo partly drawn) [Example 418] gave an IC50 of 3.9 nM.

For COC(=O)NCCCc1cc(C(C)N(C(=O)[C@H]2CNCCO2)C2CC2)sc1C1CCOCC1 (stereo partly drawn) [Example 419], the IC50 was 1.4 nM.
